Patent US20040131648A1, “Nuclear hormone receptor compounds, products and methods employing same” (The Procter & Gamble Company, priority 2002, published 2004)

System: area of the skin in need of beautifying
Test: Topical administration of beta-ionol analog to human skin
Assay type: in vivo
Conditions: daily treatments, after two weeks
Procedure: A Beta-ionol analog, melafleur alcohol, is administered topically to a human directly onto an area of the skin in need of beautifying.

With `CC1(C)CCCC2=C1CC(CO)CC2` (stereo not shown) [melafleur alcohol, 2-Naphthalenemethanol, 1,2,3,4,5,6,7,8-octahydro-8,8-dimethyl-] the “health and vitality of treated areas of the skin” value was “increased health and vitality”.
